Measurements taken from patent publication US9288993B2, “Copper resistant, fengycin-producing Bacillus mojavensis strain for controlling vegetable pathogens, its use and compositions containing it” (Szegedi Tudományegyetem, priority 2011, dated 2016).
Where two headings read alike, the source gives them in different places.

Assays:
[1] = tested on: plant pathogen fungi; experiment: Fengycin concentration of diluted culture inhibiting plant pathogen fungi; assay type: cell-based; conditions: culture in glutaminic acid/glucose solution diluted 10-20 times
[2] = tested on: P. syringae
[3] = tested on: Phytophthora infestans; conditions: 100 ppm copper

Row | Compound | fengycin concentration which achieves a complete inhibition of the majority of the plant pathogen fungi [1] [mg/L] | growth of P. syringae strains ([2]; 200 ppm copper) | growth of P. syringae strains ([2]; 400 ppm copper) | growth of Phytophthora infestans strains [3]
1 | fengycin | 10 to 12 | – | – | –
2 | O=S(=O)([O-])[O-].[Cu+2] [copper, copper-sulphate] | – | all increased | none of them | did not show growth anymore
